Source: patent US20180049438A1, “NITRIFICATION INHIBITOR COMPOSITIONS AND METHODS FOR PREPARING THE SAME” (DOW AGROSCIENCES LLC, priority 2014, published 2018)

Experiment: Solubility properties of the water soluble polar solvents (nitrapyrin solubility, water solubility)
Details: water solubility of the polar solvent

## COC(C)COC(C)CO (stereo not shown) [Dowanol DPM, dipropylene glycol monomethyl ether]
  water solubility: 100%
